Publication PMC5146859, “Phase 1/2 study of pacritinib, a next generation JAK2/FLT3 inhibitor, in myelofibrosis or other myeloid malignancies” (Journal of Hematology & Oncology, 2016)

Test system: patients with advanced myeloid malignancies
Assay: Phase 1 safety: adverse events (NCIC-CTCAE version 3.0)
Assay type: in vivo, human
Protocol: At screening/baseline, patients underwent a medical history, physical examination, vital sign assessment, ECOG PS assessment, electrocardiogram, and assessment of hematologic parameters and blood chemistry. Hematology/blood chemistry, physical examinations, and vital sign assessments were performed throughout treatment. Toxicity was assessed using the National Cancer Institute Common Terminology Criteria for Adverse Events (NCIC-CTCAE), version 3.0, with relationship to treatment assigned by the investigator and were recorded from the first dose of pacritinib until 30 days after the last dose. Bone marrow biopsy and/or aspirate samples were drawn at baseline, on day 1 of cycle 4 and cycle 10, as clinically indicated, and at the termination visit. Disease response and progression were determined using the relevant International Working Group (IWG) criteria.
The efficacy-evaluable population included those patients with a baseline and corresponding follow-up value. The safety population included all enrolled patients who received ≥1 dose of pacritinib.

C1=C/COCc2cc(ccc2OCCN2CCCC2)Nc2nccc(n2)-c2cccc(c2)COC/1 [pacritinib, 11-(2-pyrrolidin-1-yl-ethoxy)-14,19-dioxa-5,7,26-triaza-tetracyclo[19.3.1.1(2,6). 1(8,12)]heptacosa-1(25),2(26),3,5,8,10,12(27),16,21,23-decaene]
Treatment-emergent AE: Dehydration (phase 1, 200 mg, n = 9): 0 n (%) | Treatment-emergent AE: Diarrhea (phase 1, 200 mg, n = 9): 5 (55.6) n (%) | Treatment-emergent AE: Dizziness (phase 1, 200 mg, n = 9): 2 (22.2) n (%) | Treatment-emergent AE: Dyspnea (phase 1, 200 mg, n = 9): 0 n (%) | Treatment-emergent AE: Edema peripheral (phase 1, 200 mg, n = 9): 1 (11.1) n (%) | Treatment-emergent AE: Epistaxis (phase 1, 200 mg, n = 9): 1 (11.1) n (%) | Treatment-emergent AE: Fatigue (phase 1, 200 mg, n = 9): 3 (33.3) n (%) | Treatment-emergent AE: Hyperbilirubinemia (phase 1, 200 mg, n = 9): 1 (11.1) n (%) | Treatment-emergent AE: Hyperuricemia (phase 1, 200 mg, n = 9): 0 n (%) | Treatment-emergent AE: Insomnia (phase 1, 200 mg, n = 9): 2 (22.2) n (%) | Treatment-emergent AE: Nausea (phase 1, 200 mg, n = 9): 2 (22.2) n (%) | Treatment-emergent AE: Neutropenia (phase 1, 200 mg, n = 9): 0 n (%) | Treatment-emergent AE: Night sweats (phase 1, 200 mg, n = 9): 1 (11.1) n (%) | Treatment-emergent AE: Pain in extremity (phase 1, 200 mg, n = 9): 0 n (%) | Treatment-emergent AE: Petechiae (phase 1, 200 mg, n = 9): 0 n (%) | Treatment-emergent AE: Pyrexia (phase 1, 200 mg, n = 9): 2 (22.2) n (%) | Treatment-emergent AE: Skin lesion (phase 1, 200 mg, n = 9): 1 (11.1) n (%) | Treatment-emergent AE: Thrombocytopenia (phase 1, 200 mg, n = 9): 0 n (%) | Treatment-emergent AE: Upper respiratory tract infection (phase 1, 200 mg, n = 9): 2 (22.2) n (%) | Treatment-emergent AE: Vomiting (phase 1, 200 mg, n = 9): 4 (44.4) n (%) | Treatment-emergent AE: Abdominal distension (phase 1, 300 mg, n = 6): 1 (16.7) n (%) | Treatment-emergent AE: Abdominal pain (phase 1, 300 mg, n = 6): 1 (16.7) n (%) | Treatment-emergent AE: Anemia (phase 1, 300 mg, n = 6): 1 (16.7) n (%) | Treatment-emergent AE: Any AE (phase 1, 300 mg, n = 6): 6 (100.0) n (%) | Treatment-emergent AE: Asthenia (phase 1, 300 mg, n = 6): 0 n (%) | Treatment-emergent AE: Back pain (phase 1, 300 mg, n = 6): 1 (16.7) n (%) | Treatment-emergent AE: Cardiac murmur (phase 1, 300 mg, n = 6): 0 n (%) | Treatment-emergent AE: Chills (phase 1, 300 mg, n = 6): 0 n (%) | Treatment-emergent AE: Constipation (phase 1, 300 mg, n = 6): 1 (16.7) n (%) | Treatment-emergent AE: Cough (phase 1, 300 mg, n = 6): 1 (16.7) n (%) | Treatment-emergent AE: Decreased appetite (phase 1, 300 mg, n = 6): 0 n (%) | Treatment-emergent AE: Dehydration (phase 1, 300 mg, n = 6): 0 n (%) | Treatment-emergent AE: Diarrhea (phase 1, 300 mg, n = 6): 3 (50.0) n (%) | Treatment-emergent AE: Dizziness (phase 1, 300 mg, n = 6): 1 (16.7) n (%) | Treatment-emergent AE: Dyspnea (phase 1, 300 mg, n = 6): 0 n (%) | Treatment-emergent AE: Edema peripheral (phase 1, 300 mg, n = 6): 0 n (%) | Treatment-emergent AE: Epistaxis (phase 1, 300 mg, n = 6): 2 (33.3) n (%) | Treatment-emergent AE: Fatigue (phase 1, 300 mg, n = 6): 2 (33.3) n (%) | Treatment-emergent AE: Hyperbilirubinemia (phase 1, 300 mg, n = 6): 1 (16.7) n (%) | Treatment-emergent AE: Hyperuricemia (phase 1, 300 mg, n = 6): 0 n (%) | Treatment-emergent AE: Insomnia (phase 1, 300 mg, n = 6): 1 (16.7) n (%) | Treatment-emergent AE: Nausea (phase 1, 300 mg, n = 6): 3 (50.0) n (%) | Treatment-emergent AE: Neutropenia (phase 1, 300 mg, n = 6): 1 (16.7) n (%) | Treatment-emergent AE: Night sweats (phase 1, 300 mg, n = 6): 0 n (%) | Treatment-emergent AE: Pain in extremity (phase 1, 300 mg, n = 6): 1 (16.7) n (%) | Treatment-emergent AE: Petechiae (phase 1, 300 mg, n = 6): 0 n (%) | Treatment-emergent AE: Pyrexia (phase 1, 300 mg, n = 6): 1 (16.7) n (%) | Treatment-emergent AE: Skin lesion (phase 1, 300 mg, n = 6): 0 n (%) | Treatment-emergent AE: Thrombocytopenia (phase 1, 300 mg, n = 6): 1 (16.7) n (%) | Treatment-emergent AE: Upper respiratory tract infection (phase 1, 300 mg, n = 6): 1 (16.7) n (%) | Treatment-emergent AE: Vomiting (phase 1, 300 mg, n = 6): 2 (33.3) n (%) | Treatment-emergent AE: Abdominal distension (phase 1, 400 mg, n = 6): 3 (50.0) n (%) | Treatment-emergent AE: Abdominal pain (phase 1, 400 mg, n = 6): 2 (33.3) n (%) | Treatment-emergent AE: Anemia (phase 1, 400 mg, n = 6): 2 (33.3) n (%) | Treatment-emergent AE: Any AE (phase 1, 400 mg, n = 6): 6 (100.0) n (%) | Treatment-emergent AE: Asthenia (phase 1, 400 mg, n = 6): 0 n (%) | Treatment-emergent AE: Back pain (phase 1, 400 mg, n = 6): 2 (33.3) n (%) | Treatment-emergent AE: Cardiac murmur (phase 1, 400 mg, n = 6): 1 (16.7) n (%) | Treatment-emergent AE: Chills (phase 1, 400 mg, n = 6): 1 (16.7) n (%) | Treatment-emergent AE: Constipation (phase 1, 400 mg, n = 6): 2 (33.3) n (%) | Treatment-emergent AE: Cough (phase 1, 400 mg, n = 6): 1 (16.7) n (%) | Treatment-emergent AE: Decreased appetite (phase 1, 400 mg, n = 6): 3 (50.0) n (%) | Treatment-emergent AE: Dehydration (phase 1, 400 mg, n = 6): 2 (33.3) n (%) | Treatment-emergent AE: Diarrhea (phase 1, 400 mg, n = 6): 6 (100.0) n (%) | Treatment-emergent AE: Dizziness (phase 1, 400 mg, n = 6): 1 (16.7) n (%) | Treatment-emergent AE: Dyspnea (phase 1, 400 mg, n = 6): 2 (33.3) n (%) | Treatment-emergent AE: Edema peripheral (phase 1, 400 mg, n = 6): 2 (33.3) n (%) | Treatment-emergent AE: Epistaxis (phase 1, 400 mg, n = 6): 1 (16.7) n (%) | Treatment-emergent AE: Fatigue (phase 1, 400 mg, n = 6): 2 (33.3) n (%) | Treatment-emergent AE: Hyperbilirubinemia (phase 1, 400 mg, n = 6): 1 (16.7) n (%) | Treatment-emergent AE: Hyperuricemia (phase 1, 400 mg, n = 6): 0 n (%) | Treatment-emergent AE: Insomnia (phase 1, 400 mg, n = 6): 1 (16.7) n (%) | Treatment-emergent AE: Nausea (phase 1, 400 mg, n = 6): 4 (66.7) n (%) | Treatment-emergent AE: Neutropenia (phase 1, 400 mg, n = 6): 1 (16.7) n (%) | Treatment-emergent AE: Night sweats (phase 1, 400 mg, n = 6): 2 (33.3) n (%) | Treatment-emergent AE: Pain in extremity (phase 1, 400 mg, n = 6): 0 n (%)
